Source: patent US20060177517A1, “Antiinflammtory agent and antiinflammatory medical material” (priority 2003, published 2006)

Key:
human neutrophils = assay: IL-1β production by human neutrophils treated with GMDP and/or polyphosphoric acid (ELISA); assay type: cell-based
Description: To confirm the effect of suppressing inflammatory cytokine production with the polyphosphoric acid obtained according to the above production example, an experiment was conducted to observe IL-1β production using human neutrophils. Neutrophils were separated from 25 ml of human blood and then suspended in a Dulbecco's Modified Eagle's Medium. […] Treatment was carried out for maximum of 5 hours at 37° C. […] The IL-1β production amount at each time point was measured using an ELISA Kit.

[1] = system: Streptococcus mutans JC2 strain; assay: Suppression of intraoral bacteria growth, absorbance at 595 nm; assay type: cell-based; details: 24 hours after treatment
Description: A test of suppression of bacterial growth with the polyphosphoric acid obtained according to the above production example was conducted using intraoral bacteria, Streptococcus mutans (S. mutans) and Porphylomonas gingivalis (P gingivalis). The S. mutans JC2 strain was anaerobically cultured at 37° C. using Heart infusion media. For the treated groups, polyphosphoric acid was added to the culture solutions at different concentrations (0%, 0.06%, and 0.5%). For comparison groups, phosphate buffers were added at different concentrations (0%, 0.06%, and 0.5%) to culture solutions. The bacteria were cultured for a maximum of 2 days. […] In the meantime, the P. gingivalis ATCC33277 strain was anaerobically cultured using brain-heart-infusion media at 37° C. for the same time period as employed above by adding polyphosphoric acid at different concentrations (0%, 0.015%, 0.03%, 0.06%, 0.12%, 0.25%, and 0.5%) to culture solutions. Bacterial growth was observed over time by measuring absorbance at 595 nm.

[2] = system: inflammation at wound site; assay: Suppression of inflammation at wound site, rat dorsal wound model (HE staining); assay type: in vivo, Wistar rat; details: 1% solution locally injected 5 days a week
Description: The dorsum of each 6-week-old male Wistar rat was shaved under ether anesthesia, and then a 20-mm incision was made along the long axis of the body with a depth reaching to the fascia. Both ends of the center of the wound were stitched to the fascia using a piece of string so as to produce a 5-mm-wide spindle-shaped wound model (FIG. 4). A 1% polyphosphoric acid solution was locally injected 5 days a week into each wound of the rats in the treated group. A 1% phosphate buffer was locally injected 5 days a week into each wound of the rats in the comparison group. The rats were euthanized on days 3 and 7. Tissue located in the area extending from 5 mm to the left of and 5 mm to the right of the wound center was obtained by excising skin on the fascia as shown in FIG. 4. The tissues were subjected to HE staining and then histopathological observance was carried out.

[3] = system: P. gingivalis ATCC33277 strain; assay: Suppression of intraoral bacteria growth, absorbance at 595 nm; assay type: cell-based, Porphylomonas gingivalis; details: polyphosphoric acid concentration of 0.01%, 48 hours after treatment
Description: A test of suppression of bacterial growth with the polyphosphoric acid obtained according to the above production example was conducted using intraoral bacteria, Streptococcus mutans (S. mutans) and Porphylomonas gingivalis (P gingivalis). The S. mutans JC2 strain was anaerobically cultured at 37° C. using Heart infusion media. For the treated groups, polyphosphoric acid was added to the culture solutions at different concentrations (0%, 0.06%, and 0.5%). For comparison groups, phosphate buffers were added at different concentrations (0%, 0.06%, and 0.5%) to culture solutions. […] Bacterial growth was observed over time by measuring absorbance at 595 nm.

[4] = system: periodontal tissue inflammation; assay: Suppression of periodontal tissue inflammation in rat artificial periodontal pockets (HE staining); assay type: in vivo, Wister rats; details: approx. 0.1 ml of 1% solution injected into gingival crevice every day for 10 days
Description: Male Wister rats (8-week-old; 10 rats in total) were anesthetized, and then the periosteum of the alveolar part of maxillary first molar tooth was stripped. Portions of approximately 2 mm were eliminated from the buccal alveolar apexes of the maxillary first molar tooth and of the maxillary second molar tooth, using a ½ round bar, thereby forming artificial periodontal pockets (gingival crevices). In the case of the treated group (5 rats), approximately 0.1 ml of 1% polyphosphoric acid solution was injected into each gingival crevice using a syringe. Furthermore, in the case of the comparison group (5 rats), only a 1% phosphate buffer was injected. This injection procedure was carried out every day for 10 days from the day following the operation for the preparation of gingival crevices. Rats that had been treated for a certain time period were euthanized under inhalation anesthesia (ether). The maxilla bones were amputated, and then the tissues were fixed for 1 day by immersion using 10% neutral buffered formalin (pH 7.4). Subsequently, the resultants were subjected to acid demineralization at room temperature for approximately 2 days. After completion of demineralization, the samples were trimmed by excision at the second molar tooth, and then paraffin-embedded with their cut surfaces positioned downward. […]

In the case of `CC(=O)NC1C(OC2C(CO)OC(O)C(NC(C)=O)C2OC(C)C(=O)NC(C)C(=O)NC(CCC(=O)O)C(N)=O)OC(CO)C(O)C1O` [GMDP, N-Acetyl-D-Glucosaminyl-β(1-4)-N-acetylmuramyl-L-alanyl-D-isoglutamine, reference compound], the IL-1β production amount (human neutrophils; 30 μg GMDP alone, up to 5 hours) is reported as “increased with time”.
`O=P(O)(O)O` [phosphoric acid, reference compound] was tested, and the “bacterial growth of S. mutans” value ([1]; phosphoric acid concentration of 0.5%) was “no large changes”.
For polyphosphoric acid, the “extension of the epithelia toward the centers of the wounds” value ([2]; day 3 after operation) was “significant extension”, the “infiltration by inflammatory cells at the wound” value ([2]; day 3 after operation) was “infiltration by inflammatory cells decreased” and the “epithelialization of the wound surfaces” value ([2]; day 7 after operation) was “almost completely epithelialized”. For the same molecule, the “extension of the epithelia at the cut ends of the wounds, compared with the comparison group” value ([2]; day 7 after operation) was “promoted”, the “inflammation at the centers of the wounds” value ([2]; day 7 after operation) was “inflammation remained slight and partial on the upper parts” and the “bacterial growth of P. gingivalis” value [3] was “significantly suppressed bacterial growth”. For the same molecule, the IL-1β production amount (human neutrophils; GMDP plus polyphosphoric acids (0.2, 1, 5 mM), 5 hours after treatment) was “decreased depending on the concentrations of the polyphosphoric acids”, the IL-1β production amount (human neutrophils; GMDP plus polyphosphoric acids (0.2, 1, 5 mM), until 3 hours after treatment, versus GMDP alone) was “suppressed to a level similar to that of the comparison group” and the IL-1β production amount (human neutrophils; polyphosphoric acids alone (0.2, 1, 5 mM), no GMDP) was “almost the same at any polyphosphoric acid concentration as that in the case of the comparison group”. For the same molecule, the “bacterial growth of S. mutans” value ([1]; polyphosphoric acid concentration of 0.06%) was “significantly suppressed bacterial growth” and the “inflammatory cells in the peripheries of the treated sites” value [4] was “Almost no inflammatory cells were observed”.
